Measured values reported in PubChem BioAssay AID2060890 (Molecular Pharmacology Branch, DTP, NCI, 2025).

System: LG0703-F948-PDC complex spheroid viability
Assay: Anticancer human tumor LG0703-F948-PDC patient-derived lung adenocarcinoma cell line growth inhibition [RAS]
Settings: for IC50: curve of first compound; for viability, T/C: stronger effect = lower value
Excerpt: RAS pathway inhibitors in Combinations in Complex Spheroids
A high-throughput screen of multi-cell type tumor spheroids was designed to identify active combinations of RAS pathway inhibitors and targeted small molecules. Complex spheroids include a stromal component modeled by human endothelial cells (HUVEC) and fibroblasts modeled by human mesenchymal stem cells (MSCs). The concentration ranges selected for each drug and investigational agent were based upon clinically achievable concentrations if the clinical Cmax of the agent was known.
Compounds. The drugs and investigational agents: abemaciclib (NSC768073), cobimetinib (NSC768068), divarasib (GDC6063, NSC841802), docetaxel (NSC628503), GDC-1971 (RLY-1971, NSC841576), gemcitabine (NSC613327), inavolisib (NSC800729), ipatasertib (NSC767898), KB-0742 (NSC834161), MRTX-1133 (NSC836407), osimertinib (NSC779217), RMC-4630 (NSC839698), RMC-6236 (NSC851965), RMC-6291 (NSC852671), Ro-3306 (NSC812927), sapanisertib (NSC764658), SN-38 (NSC673596), staurosporine (NSC755774), SY5609 (NSC837396), and tovorafenib (DAY101, NSC766906), were obtained from the National Cancer Institute (NCI) Developmental Therapeutics Program Chemical Repository. The FDA-approved anticancer drug set is available from the NCI Developmental Therapeutics Program. […] The stock solutions were prepared in dimethyl sulfoxide (DMSO, Sigma-Aldrich, St. Louis, MO, cat. D2650) at 800-fold the tested concentration and stored at -70 degrees C prior to their use. All drugs and investigational agents were tested over a range starting from a high concentration at or near the clinical Cmax and decreasing in half-log increments. If the clinical Cmax for an agent had not been determined, the highest concentration tested was 10 microM.
Cell Culture. All cells were maintained in an incubator at 37 degrees C and 5% CO2 with 95% humidity. The PDC lines were cultured according to standard operating procedures established by the NCI PDMR. All PDCs were thawed and cultured in Matrigel-coated flasks prepared with a working solution of 1X Ham's F-12 nutrient mix, without supplementation (Invitrogen, Waltham, MA, cat. 11765054), 100 U/mL penicillin-streptomycin (Invitrogen, cat. 15140122), and 2.5% Matrigel (Corning Inc., Corning, NY, cat. 354248) for the first three passages. The 362531-283-R-J2-PDC and 782815-120-R-J1-PDC lines were cultured in 6C/Colon 1B media, which includes advanced DMEM/F-12 (Thermo Fisher Scientific, cat. 12634028), 10 mM HEPES (Thermo Fisher Scientific, cat. 15630080), 1X GlutaMAX supplement (Thermo Fisher Scientific, cat. 35050061), 0.1 mg/mL primocin (InvivoGen, San Diego, CA, cat. ant-pm-2), 10% defined fetal bovine serum, heat inactivated (HyClone Laboratories Inc., Logan, UT, cat. SH30070.03HI), 50% L-WRN conditioned media (ATCC, cat. CRL-3276), 1.25 mM N-Acetyl-L-cysteine (Sigma-Aldrich, cat. A9165), 10 mM nicotinamide (Sigma-Aldrich, cat. N0636), 1X B-27 supplement (Thermo Fisher Scientific, cat. 17504044), 1X N-2 supplement (Thermo Fisher Scientific, cat. 17502048), 50 ng/mL human EGF (Thermo Fisher Scientific, cat. PHG0311), and 10 microM Y-27632 dihydrochloride (Tocris Bioscience, cat. 1254). The K12877-001-R-J1-PDC line was cultured in 6I media, which includes all 6C/Colon 1B media plus 10 ng/mL human FGF-10 (PeproTech, cat. 100-26), 1 ng/mL human FGF-2 (PeproTech, cat. 100-18B), 1 µM prostaglandin E2 (Tocris Bioscience, cat. 2296), […] hydrocortisone (Sigma-Aldrich, cat. H4001), and […] bovine insulin (Sigma-Aldrich, cat. I6634). The K86415-001-R-J1-PDC line was cultured in 6D media, which includes all 6C/Colon 1B media components minus the L-WRN conditioned media. The 485176-168-R4-J1-PDC was cultured in PANC media, which includes all 6C/Colon 1B media plus 100 ng/mL human FGF-10 (PeproTech, cat. 100-26), 500 nM SB-431542 (Selleckchem, cat. S1067), and 10 nM gastrin (Tocris Bioscience, cat. 3006). […]

[1] = second compound 0.0316 µM, first compound 0.0316 µM
[2] = second compound 0.0316 µM, first compound 0.1 µM
[3] = second compound 0.0316 µM, first compound 0.316 µM
[4] = second compound 0.0316 µM, first compound 1 µM
[5] = second compound 0.0316 µM, first compound 3.16 µM
[6] = second compound 0.0316 µM, first compound 10 µM
[7] = second compound 0.1 µM, first compound 0.0316 µM
[8] = second compound 0.1 µM, first compound 0.1 µM
[9] = second compound 0.1 µM, first compound 0.316 µM
[10] = second compound 0.1 µM, first compound 1 µM
[11] = second compound 0.1 µM, first compound 3.16 µM
[12] = second compound 0.1 µM, first compound 10 µM
[13] = second compound 0.316 µM, first compound 0.0316 µM
[14] = second compound 0.316 µM, first compound 0.1 µM
[15] = second compound 0.316 µM, first compound 0.316 µM
[16] = second compound 0.316 µM, first compound 1 µM
[17] = second compound 0.316 µM, first compound 3.16 µM
[18] = second compound 0.316 µM, first compound 10 µM
[19] = second compound 1 µM, first compound 0.0316 µM
[20] = second compound 1 µM, first compound 0.1 µM
[21] = second compound 1 µM, first compound 0.316 µM
[22] = second compound 1 µM, first compound 1 µM
[23] = second compound 1 µM, first compound 3.16 µM
[24] = second compound 1 µM, first compound 10 µM
[25] = second compound 3.16 µM, first compound 0.0316 µM
[26] = second compound 3.16 µM, first compound 0.1 µM
[27] = second compound 3.16 µM, first compound 0.316 µM
[28] = second compound 3.16 µM, first compound 1 µM
[29] = second compound 3.16 µM, first compound 3.16 µM
[30] = second compound 3.16 µM, first compound 10 µM
[31] = second compound 10 µM, first compound 0.0316 µM
[32] = second compound 10 µM, first compound 0.1 µM
[33] = second compound 10 µM, first compound 0.316 µM
[34] = second compound 10 µM, first compound 1 µM
[35] = second compound 10 µM, first compound 3.16 µM
[36] = second compound 10 µM, first compound 10 µM
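Wherever viability, T/C is given: 100% = DMSO vehicle wells.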

## Cc1nc(N2CCC3(CC2)COC(C)C3N)c(CO)nc1Sc1ccnc(N)c1Cl (stereo unspecified) + C#Cc1c(F)ccc2cc(O)cc(-c3ncc4c(N5CC6CCC(C5)N6)nc(OCC56CCCN5CC(F)C6)nc4c3F)c12
Second compound 0.0316 µM
  IC50: 370 nM
Second compound 0.1 µM
  IC50: 287 nM
Second compound 0.316 µM
  IC50: 181 nM
Second compound 1 µM
  IC50: 85.8 nM
Second compound 3.16 µM
  IC50: 32.7 nM
Second compound 10 µM
  IC50: < 31.6 nM
[1]
  viability, T/C: 76.2%
[2]
  viability, T/C: 73.7%
[3]
  viability, T/C: 47.9%
[4]
  viability, T/C: 35.5%
[5]
  viability, T/C: 20.1%
[6]
  viability, T/C: 10.7%
[7]
  viability, T/C: 83.4%
[8]
  viability, T/C: 63%
[9]
  viability, T/C: 47.4%
[10]
  viability, T/C: 35.9%
[11]
  viability, T/C: 17.6%
[12]
  viability, T/C: 4.95%
[13]
  viability, T/C: 68.1%
[14]
  viability, T/C: 60.1%
[15]
  viability, T/C: 40.3%
[16]
  viability, T/C: 26.4%
[17]
  viability, T/C: 14.4%
[18]
  viability, T/C: 6.94%
[19]
  viability, T/C: 52.4%
[20]
  viability, T/C: 51.7%
[21]
  viability, T/C: 35.8%
[22]
  viability, T/C: 19.9%
[23]
  viability, T/C: 15.5%
[24]
  viability, T/C: 7.42%
[25]
  viability, T/C: 50.3%
[26]
  viability, T/C: 41.5%
[27]
  viability, T/C: 28.5%
[28]
  viability, T/C: 15%
[29]
  viability, T/C: 9.6%
[30]
  viability, T/C: 5.81%
[31]
  viability, T/C: 28.7%
[32]
  viability, T/C: 29.3%
[33]
  viability, T/C: 20.1%
[34]
  viability, T/C: 10.6%
[35]
  viability, T/C: 6.12%
[36]
  viability, T/C: 2.83%

## NC1c2ccccc2OC12CCN(c1cnc3c(N4CCCc5ncccc54)n[nH]c3n1)CC2 (stereo unspecified) + C#Cc1c(F)ccc2cc(O)cc(-c3ncc4c(N5CC6CCC(C5)N6)nc(OCC56CCCN5CC(F)C6)nc4c3F)c12
Second compound 0.0316 µM
  IC50: 43.3 nM
Second compound 0.1 µM
  IC50: < 31.6 nM
Second compound 0.316 µM
  IC50: < 31.6 nM
Second compound 1 µM
  IC50: < 31.6 nM
Second compound 3.16 µM
  IC50: < 31.6 nM
Second compound 10 µM
  IC50: < 31.6 nM
[1]
  viability, T/C: 56.9%
[2]
  viability, T/C: 32.3%
[3]
  viability, T/C: 14.9%
[4]
  viability, T/C: 16.3%
[5]
  viability, T/C: 5.44%
[6]
  viability, T/C: 2.29%
[7]
  viability, T/C: 48.8%
[8]
  viability, T/C: 27.7%
[9]
  viability, T/C: 16.5%
[10]
  viability, T/C: 8.26%
[11]
  viability, T/C: 4.2%
[12]
  viability, T/C: 2.16%
[13]
  viability, T/C: 43.7%
[14]
  viability, T/C: 30.5%
[15]
  viability, T/C: 14.4%
[16]
  viability, T/C: 6.72%
[17]
  viability, T/C: 4.41%
[18]
  viability, T/C: 2.49%
[19]
  viability, T/C: 28.2%
[20]
  viability, T/C: 21.9%
[21]
  viability, T/C: 9.98%
[22]
  viability, T/C: 6.62%
[23]
  viability, T/C: 3.17%
[24]
  viability, T/C: 1.84%
[25]
  viability, T/C: 28.2%
[26]
  viability, T/C: 15.1%
[27]
  viability, T/C: 11.1%
[28]
  viability, T/C: 6.14%
[29]
  viability, T/C: 4.26%
[30]
  viability, T/C: 1.29%
[31]
  viability, T/C: 21%
[32]
  viability, T/C: 13.5%
[33]
  viability, T/C: 5.38%
[34]
  viability, T/C: 2.35%
[35]
  viability, T/C: 2.25%
[36]
  viability, T/C: 0.66%

## Nc1ccn(C2OC(CO)C(O)C2(F)F)c(=O)n1 (stereo unspecified) + C#Cc1c(F)ccc2cc(O)cc(-c3ncc4c(N5CC6CCC(C5)N6)nc(OCC56CCCN5CC(F)C6)nc4c3F)c12
Second compound 0.0316 µM
  IC50: 6.33 nM
Second compound 0.1 µM
  IC50: 8.21 nM
Second compound 0.316 µM
  IC50: 6.43 nM
Second compound 1 µM
  IC50: 5.01 nM
Second compound 3.16 µM
  IC50: 3.85 nM
Second compound 10 µM
  IC50: < 3.16 nM
Second compound 0.0316 µM, first compound 0.00316 µM
  viability, T/C: 68.2%
Second compound 0.0316 µM, first compound 0.01 µM
  viability, T/C: 37.7%
[1]
  viability, T/C: 30.6%
[2]
  viability, T/C: 34.1%
[3]
  viability, T/C: 25.7%
[4]
  viability, T/C: 28.3%
Second compound 0.1 µM, first compound 0.00316 µM
  viability, T/C: 74.2%
Second compound 0.1 µM, first compound 0.01 µM
  viability, T/C: 45%
[7]
  viability, T/C: 26.9%
[8]
  viability, T/C: 27.4%
[9]
  viability, T/C: 31.9%
[10]
  viability, T/C: 27%
Second compound 0.316 µM, first compound 0.00316 µM
  viability, T/C: 63.7%
Second compound 0.316 µM, first compound 0.01 µM
  viability, T/C: 40.8%
[13]
  viability, T/C: 31.6%
[14]
  viability, T/C: 29%
[15]
  viability, T/C: 26.6%
[16]
  viability, T/C: 23.5%
Second compound 1 µM, first compound 0.00316 µM
  viability, T/C: 59%
Second compound 1 µM, first compound 0.01 µM
  viability, T/C: 35.4%
[19]
  viability, T/C: 32.7%
[20]
  viability, T/C: 23.8%
[21]
  viability, T/C: 26.4%
[22]
  viability, T/C: 25.6%
Second compound 3.16 µM, first compound 0.00316 µM
  viability, T/C: 53%
Second compound 3.16 µM, first compound 0.01 µM
  viability, T/C: 34.7%
[25]
  viability, T/C: 34.2%
[26]
  viability, T/C: 30.9%
[27]
  viability, T/C: 32%
[28]
  viability, T/C: 26.9%
Second compound 10 µM, first compound 0.00316 µM
  viability, T/C: 41.5%
Second compound 10 µM, first compound 0.01 µM
  viability, T/C: 29%
[31]
  viability, T/C: 32.5%
[32]
  viability, T/C: 33.5%
[33]
  viability, T/C: 34%
[34]
  viability, T/C: 30.7%
